The values that follow come from PubChem BioAssay (NCI).

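Interpolation was linear, between the two tested concentrations surrounding the appropriate level; five concentrations were tested over 48 hours in 96-well plates. At the GI50, growth is halved. TGI denotes the concentration required for complete inhibition of growth.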 Some results are limits rather than exact numbers.

Some test systems named below: HT29 colon; LOX IMVI melanoma; M14 melanoma; MALME-3M melanoma; NCI-H23 lung; NCI-H522 lung; A498 renal; MDA-MB-435; BT-549 breast; MDA-MB-231 breast.
Common to all, as to experiment: NCI tumour cell line growth inhibition, 48 h

Take `COc1ccc(-c2cc(=O)c3ccc(O)cc3o2)c(OC)c1OC`: the TGI was over 100 µM with HT29 colon; over 100 µM with LOX IMVI melanoma; over 100 µM in the experiment on M14 melanoma; over 100 µM in the experiment on MALME-3M melanoma; over 100 µM with NCI-H23 lung; 82.8 µM in the experiment with NCI-H522 lung.
For `CSc1ccc(/C=C2\CN(C)C/C(=C\c3ccc(SC)cc3)C2=O)cc1`, the TGI in the experiment with A498 renal is over 100 µM; with HT29 colon, 67 µM; with LOX IMVI melanoma it was 22.6 µM; in the experiment with M14 melanoma, over 100 µM; with MALME-3M melanoma it was over 100 µM; with NCI-H23 lung, 34.5 µM.
For `c1cc2c(cc1NC1=NCCO1)CCC2`, the TGI with HT29 colon, in the experiment on LOX IMVI melanoma, with MALME-3M melanoma, in the experiment on MDA-MB-435 and in the experiment with NCI-H23 lung was over 10 µM each time.
In the case of `CC1(C)OC(=O)C(=Cc2ccc(O)cc2)C(=O)O1`, the TGI in the experiment on A498 renal, in the experiment on HT29 colon, in the experiment on LOX IMVI melanoma, in the experiment on M14 melanoma, in the experiment on MALME-3M melanoma and in the experiment on NCI-H23 lung was over 100 µM throughout. The same compound returned a TGI in the experiment on NCI-H522 lung of over 100 µM.
Regarding `O=[S@@]1Nc2ccc(Br)cc2S1`, the TGI in the experiment on HT29 colon is over 100 µM; with LOX IMVI melanoma it was over 100 µM; with M14 melanoma it was over 100 µM; in the experiment with MALME-3M melanoma, over 100 µM; in the experiment with NCI-H23 lung, over 100 µM; in the experiment with NCI-H522 lung, 68.6 µM.
In the case of `COc1cc2cnc3c4cc(OC(C)C)c(OC)cc4ccc3c2cc1OC`, the TGI in the experiment with A498 renal, with HT29 colon, in the experiment on M14 melanoma, in the experiment with MALME-3M melanoma, in the experiment with NCI-H23 lung and in the experiment with NCI-H522 lung was over 100 µM each time.
Regarding `CC(=O)C(CN(C(C)C)C(C)C)C(c1ccccc1)c1c(O)c2ccccc2oc1=O` (centres undefined), the TGI in the experiment on A498 renal, in the experiment on HT29 colon, in the experiment on LOX IMVI melanoma, in the experiment with M14 melanoma, in the experiment on MALME-3M melanoma and in the experiment on NCI-H23 lung was over 100 µM throughout. The compound also displayed a TGI in the experiment with NCI-H522 lung of over 100 µM.
As to `O=C(N/C(=C\c1cc(Cl)ccc1Cl)c1nc2[nH]c(=S)[nH]c(=O)c2[nH]1)c1ccccc1`, the TGI with A498 renal was over 100 µM; in the experiment with HT29 colon it was 39.6 µM; in the experiment on LOX IMVI melanoma, 91.6 µM; in the experiment with M14 melanoma, over 56.5 µM; in the experiment with MALME-3M melanoma it was over 100 µM; in the experiment with NCI-H23 lung, over 65.8 µM. The same compound gave a TGI in the experiment with NCI-H522 lung of over 100 µM.
`CCOC(=O)C(Sc1ccccc1)c1c(OC)cc(=O)oc1/C=[N+](/[O-])c1ccc(N(C)C)cc1` (centres undefined): the TGI in the experiment with A498 renal was over 100 µM; with HT29 colon it was 31.4 µM; in the experiment on LOX IMVI melanoma it was 26.6 µM; with M14 melanoma, 31.1 µM; in the experiment with MALME-3M melanoma, 58.5 µM; in the experiment on NCI-H23 lung it was 78.5 µM.
Consider `CC1=C(C(=O)Nc2ccccc2C)C(c2ccco2)C(C(=O)Nc2ccccc2C)=C(C)N1C`, for which the TGI with HT29 colon, with LOX IMVI melanoma, in the experiment on M14 melanoma, in the experiment on MALME-3M melanoma, in the experiment with NCI-H23 lung and in the experiment on NCI-H522 lung was over 100 µM in each case.
Take `CC(=O)NC1=C(NCC(C)(C)C)C(=O)c2ccccc2C1=O`: the TGI was over 100 µM in the experiment on HT29 colon; over 100 µM with LOX IMVI melanoma; over 100 µM in the experiment on M14 melanoma; over 100 µM in the experiment with MALME-3M melanoma; over 100 µM in the experiment with NCI-H23 lung; 49.7 µM with NCI-H522 lung.
`COc1ccc(-n2/c(=N/C(=S)N(C)C)ss/c2=N\C(=S)N(C)C)cc1`: the TGI with A498 renal is over 100 µM; in the experiment on HT29 colon, 5.97 µM; with LOX IMVI melanoma, over 100 µM; with M14 melanoma, over 100 µM; with MALME-3M melanoma it was over 100 µM; in the experiment with NCI-H23 lung it was over 100 µM. The same compound displayed a TGI with NCI-H522 lung of 16.6 µM.
With `CN(CC(=O)O)S(=O)(=O)c1ccc2ccccc2c1`, the TGI in the experiment on A498 renal, with HT29 colon, in the experiment on LOX IMVI melanoma, with M14 melanoma, in the experiment with MALME-3M melanoma and in the experiment on NCI-H23 lung was over 100 µM throughout. Besides, the TGI with NCI-H522 lung is over 100 µM.
For the compound `Nc1ccc(C(=O)N/C(=C\c2ccc3c(c2)OCO3)c2nc3[nH]c(=S)[nH]c(=O)c3[nH]2)cc1`, the TGI with HT29 colon, in the experiment with M14 melanoma, in the experiment with MALME-3M melanoma, with NCI-H23 lung and in the experiment with NCI-H522 lung was over 100 µM throughout.
Consider `CC(C)=CCCc1c(C)ccc2c1C(=O)C(=O)C(C(C)C)=C2`, for which the TGI is over 22 µM in the experiment on A498 renal; over 22 µM with HT29 colon; 7.95 µM in the experiment with M14 melanoma; 6.78 µM in the experiment on MALME-3M melanoma; 8.52 µM with NCI-H23 lung; 6.39 µM in the experiment with NCI-H522 lung.
`COc1cccc(NC(=O)CC(=O)n2nc(C)c(N=Nc3ccccc3)c2C)c1`: the TGI in the experiment on A498 renal, in the experiment on HT29 colon, with LOX IMVI melanoma, with M14 melanoma, with MALME-3M melanoma and with NCI-H23 lung was over 100 µM throughout. The compound also yielded a TGI in the experiment on NCI-H522 lung of over 100 µM.
With `O=C(/C=C/c1ccccc1Cl)c1ccc(Cl)c(Cl)c1`, the TGI stood at 33.9 µM with A498 renal; 36 µM in the experiment with HT29 colon; 28 µM in the experiment with LOX IMVI melanoma; 33.4 µM with M14 melanoma; 55.7 µM in the experiment with MALME-3M melanoma; 36.4 µM in the experiment with NCI-H23 lung. For the same compound, the TGI in the experiment on NCI-H522 lung came out at 31.1 µM.
As for `CNC(=O)c1cc(Oc2ccc3nc(NC(=O)Nc4ccc(Cl)c(C(F)(F)F)c4)sc3c2)ccn1`, the GI50 is 2.49 µM in the experiment with A498 renal; 2.64 µM in the experiment with BT-549 breast; 2.68 µM in the experiment on LOX IMVI melanoma; 1.43 µM with MDA-MB-231 breast; 2.48 µM in the experiment on NCI-H23 lung; 2.54 µM in the experiment on NCI-H522 lung. Further, the TGI in the experiment with A498 renal is 12.2 µM; in the experiment on BT-549 breast, 9.73 µM; with LOX IMVI melanoma, over 100 µM; in the experiment with MDA-MB-231 breast it was 4.29 µM; with NCI-H23 lung, 8.17 µM; in the experiment on NCI-H522 lung, over 100 µM.
